Where “and” joins values, the source holds several entries; their conditions need not be identical. Equal entries are not always repeated.
Columns and labels:
Assay in all cases: qHTS cell viability (CellTiter-Glo, 72 h; primary and follow-up small molecule screen)
Type in all cases: cell-based, human
MCC13 cells (VN-MCC) = test system: MCC13 cells (VN-MCC)
MCC26 cells (VN-MCC) = test system: MCC26 cells (VN-MCC)
UISO cells (VN-MCC) = test system: UISO cells (VN-MCC)
WAGA cells (VP-MCC) = test system: WAGA cells (VP-MCC)
MKL-1 cells (VP-MCC) = test system: MKL-1 cells (VP-MCC)
MKL-2 cells (VP-MCC) = test system: MKL-2 cells (VP-MCC)

Structure (SMILES): CCCC[C@@H](C)/C=C(C)/C=C(\C)C(=O)NC1=C[C@@](O)(/C=C/C=C/C=C/C(=O)NC2=C(O)CCC2=O)[C@@H]2O[C@@H]2C1=O [manumycin A]
- Area under the dose-response curve (AUC) MCC13 Replicate 1 (MCC13 cells (VN-MCC)): 464.3
- Area under the dose-response curve (AUC) MCC13 Replicate 2 (MCC13 cells (VN-MCC)): 477.8
- Area under the dose-response curve (AUC) MCC13 Replicate 3 (MCC13 cells (VN-MCC)): 420.7
- Area under the dose-response curve (AUC) MCC26 Replicate 1 (MCC26 cells (VN-MCC)): 416.4
- Area under the dose-response curve (AUC) MCC26 Replicate 2 (MCC26 cells (VN-MCC)): 409.7
- Area under the dose-response curve (AUC) MCC26 Replicate 3 (MCC26 cells (VN-MCC)): 443.4
- Area under the dose-response curve (AUC) UISO Replicate 1 (UISO cells (VN-MCC)): 429.0
- Area under the dose-response curve (AUC) UISO Replicate 2 (UISO cells (VN-MCC)): 434.7
- Area under the dose-response curve (AUC) UISO Replicate 3 (UISO cells (VN-MCC)): 408.1
- Area under the dose-response curve (AUC) WAGA Replicate 1 (WAGA cells (VP-MCC)): 424.6
- Area under the dose-response curve (AUC) WAGA Replicate 2 (WAGA cells (VP-MCC)): 379.9
- Area under the dose-response curve (AUC) WAGA Replicate 3 (WAGA cells (VP-MCC)): 418.7
- Area under the dose-response curve (AUC) MKL-1 Replicate 1 (MKL-1 cells (VP-MCC)): 418.4
- Area under the dose-response curve (AUC) MKL-1 Replicate 2 (MKL-1 cells (VP-MCC)): 432.7
- Area under the dose-response curve (AUC) MKL-1 Replicate 3 (MKL-1 cells (VP-MCC)): 426.4
- Area under the dose-response curve (AUC) MKL-2 Replicate 1 (MKL-2 cells (VP-MCC)): 385.8
- Area under the dose-response curve (AUC) MKL-2 Replicate 2 (MKL-2 cells (VP-MCC)): 395.8
- Area under the dose-response curve (AUC) MKL-2 Replicate 3 (MKL-2 cells (VP-MCC)): 389.6

Structure (SMILES): O=C(O)CC(C(=O)O)n1c(O)c(C2=c3cc(Br)ccc3=NC2=O)sc1=S (stereo not drawn) [BCL6 Inhibitor]
- Area under the dose-response curve (AUC) (MCC13 cells (VN-MCC)): 512.5 and 484.7 and 473.4
- Area under the dose-response curve (AUC) (MCC26 cells (VN-MCC)): 463.9 and 441.3 and 491.7
- Area under the dose-response curve (AUC) (UISO cells (VN-MCC)): 463.7 and 453.9 and 421.4
- Area under the dose-response curve (AUC) (WAGA cells (VP-MCC)): 531.4 and 497.2 and 476.9
- Area under the dose-response curve (AUC) (MKL-1 cells (VP-MCC)): 525.6 and 554.1 and 496.0
- Area under the dose-response curve (AUC) (MKL-2 cells (VP-MCC)): 493.8 and 494.8 and 466.7
